# Read-outs that look alike come from different tables or passages of the source.
# Key:
# [1] = Conversion of nucleosides in the medium of uninfected MCF-7 cells; format: biochemical, human; details: even after 24 hours of incubation; data not shown
# Procedure: The TP activity of M. hyorhinis and the conversion of dThd, FdUrd, 5′DFUR and TFT to thymine, 5FU, 5FU or TF-thymine respectively were measured by high-pressure liquid chromatography (HPLC) analysis. MCF-7 and MCF-7/HYOR cells were seeded at a density of 20,000 cells/cm^2 in DMEM with 10% FBS. Four days later, the medium was collected and cleared by centrifugation at 1,400 rpm. For some experiments, the medium of MCF-7/HYOR cells was filtered using a 0.1 μm micro filter (Acrodisc syringe filter, PALL Corporation, East Hills, N.Y.) to remove the mycoplasmas from the medium. 600 μl of the medium was incubated with 200 μM of substrate (dThd, 5′DFUR, TFT or FdUrd) at 37° C. in the presence or absence of 10 μM TPi. […] Next, the samples were rapidly cooled on ice, exposed for 20 min to 200 μl ice-cold methanol and cleared by centrifugation at 15,000 rpm for 15 minutes. As a positive control, an enzyme activity assay with E. coli TP (Sigma) was performed. For this reaction, 0.025 U of TP were incubated with 200 μM of substrate in TP-buffer (10 mM Tris-HCl, pH 7.6, 1 mM EDTA, 2 mM potassium phosphate and 150 mM NaCl) in a total volume of 600 μl. Aliquots of 100 μl were withdrawn from the reaction mixture at several time points and treated as described above. The nucleosides were separated from their nucleobases on a reversed-phase RP-8 column (Merck, Darmstadt, Germany) and quantified by HPLC analysis (Aliance 2690, Waters, Milford, Mass.). The separation was performed by a linear gradient from 100% buffer B (50 mM NaH2PO4 and 5 mM heptane sulfonic acid, pH 3.2), to 20% buffer B and 80% acetonitrile. […] UV-based detection of all nucleosides was performed at 267 nm.
# MCF-7 cells = assay: Tumor cell proliferation assay, uninfected MCF-7 cells; format: cell-based, human; details: Homo sapiens, uninfected MCF-7
# Procedure: MCF-7 and MCF-7/HYOR cells were seeded in 48-well plates at 10,000 cells/cm^2. […] of the test compounds (5FU, 5′DFUR, CIdUrd, BrdUrd, IdUrd and TFT) with or without 10 μM TPi were added. The cells were incubated for another 4 days, trypsinized and counted by a Coulter counter (Analis, Suarlée, Belgium). In some experiments, the antibiotic plasmocin was added one or three days before addition of the test compounds.
# MCF-7/HYOR cells [2] = assay: Tumor cell proliferation assay, M. hyorhinis-infected MCF-7 cells; format: cell-based, human; details: for IC50: Homo sapiens
# Procedure: Mycoplasma hyorhinis (ATCC 17981) was obtained from the American Type Culture Collection (ATCC, Manassas, Va.). The freeze-dried bacteria were reconstituted by adding 1 ml of DMEM. […] The co-culture of MCF-7 cells and M. hyorhinis was maintained under the same conditions as the uninfected MCF-7 cells. […] The cells were incubated for another 4 days, trypsinized and counted by a Coulter counter (Analis, Suarlée, Belgium).
# E. coli TP = molecular target: T1, E. coli TP (Escherichia coli, UniProt P07650); assay: Enzyme activity assay with recombinant E. coli TP (positive control); format: biochemical; details: 0.025 U TP, 200 μM substrate
# T1 construct: purchased Sigma
# T1 sequence (P07650 whole entry): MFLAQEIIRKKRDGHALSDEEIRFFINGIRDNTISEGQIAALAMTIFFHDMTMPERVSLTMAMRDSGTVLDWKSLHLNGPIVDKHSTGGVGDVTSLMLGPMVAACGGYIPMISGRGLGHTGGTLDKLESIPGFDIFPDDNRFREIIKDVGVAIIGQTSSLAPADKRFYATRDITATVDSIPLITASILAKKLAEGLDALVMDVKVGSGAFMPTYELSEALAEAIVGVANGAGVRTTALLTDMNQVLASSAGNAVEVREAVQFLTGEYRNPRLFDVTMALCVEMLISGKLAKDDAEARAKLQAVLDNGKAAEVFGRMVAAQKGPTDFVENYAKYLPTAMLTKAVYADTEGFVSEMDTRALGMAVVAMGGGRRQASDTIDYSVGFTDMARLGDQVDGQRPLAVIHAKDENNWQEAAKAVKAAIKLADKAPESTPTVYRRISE
# Procedure: (§1) The TP activity of M. hyorhinis and the conversion of dThd, FdUrd, 5′DFUR and TFT to thymine, 5FU, 5FU or TF-thymine respectively were measured by high-pressure liquid chromatography (HPLC) analysis. MCF-7 and MCF-7/HYOR cells were seeded at a density of 20,000 cells/cm^2 in DMEM with 10% FBS. Four days later, the medium was collected and cleared by centrifugation at 1,400 rpm. For some experiments, the medium of MCF-7/HYOR cells was filtered using a 0.1 μm micro filter (Acrodisc syringe filter, PALL Corporation, East Hills, N.Y.) to remove the mycoplasmas from the medium. 600 μl of the medium was incubated with 200 μM of substrate (dThd, 5′DFUR, TFT or FdUrd) at 37° C. in the presence or absence of 10 μM TPi. At different time points (i.e. 0, 15, 30, 60, 120 minutes and 16 hours), 100 μl aliquots were withdrawn, transferred to Eppendorf tubes and heated at 95° C. for 3 min. Next, the samples were rapidly cooled on ice, exposed for 20 min to 200 μl ice-cold methanol and cleared by centrifugation at 15,000 rpm for 15 minutes. As a positive control, an enzyme activity assay with E. coli TP (Sigma) was performed. For this reaction, 0.025 U of TP were incubated with 200 μM of substrate in TP-buffer (10 mM Tris-HCl, pH 7.6, 1 mM EDTA, 2 mM potassium phosphate and 150 mM NaCl) in a total volume of 600 μl. Aliquots of 100 μl were withdrawn from the reaction mixture at several time points and treated as described above. The nucleosides were separated from their nucleobases on a reversed-phase RP-8 column (Merck, Darmstadt, Germany) and quantified by HPLC analysis (Aliance 2690, Waters, Milford, Mass.). The separation was performed by a linear gradient from 100% buffer B (50 mM NaH2PO4 and 5 mM heptane sulfonic acid, pH 3.2), to 20% buffer B and 80% acetonitrile. Retention times of thymine and thymidine were respectively 5.1 and 10.8 minutes. UV-based detection of all nucleosides was performed at 267 nm.
# M. hyorhinis TP = assay: TP activity in the medium of MCF-7/HYOR cell cultures (HPLC, conversion of nucleoside to free base); format: biochemical, Mycoplasma hyorhinis; details: for Percent conversion of nucleoside to the free pyrimidine base in MCF-7/HYOR medium: 37° C.
# Procedure: as §1, with “Retention times of thymine and thymidine were respectively 5.1 and 10.8 minutes.” left out
# M. hyorhinis = assay: Staining of DNA with Hoechst 33342, growth of M. hyorhinis in MCF-7 cell cultures; format: cell-based, Mycoplasma hyorhinis; details: 10 μM; 3 days
# Procedure: 10,000 cells/cm^2 (MCF-7 and MCF-7/HYOR) were seeded in 8-well chamber slides (Nunc, Roskilde, Denmark). After 24 hours, 10 μM TPi was added and the cells were incubated for an additional 72 hours. Next, the cells were fixed with Carnoy's fixative (1 part glacial acetic acid to 3 parts absolute methanol) for 10 minutes, air-dried and exposed to the DNA-binding dye Hoechst 33342 (Sigma) at a concentration of 0.5 μg/ml for 15 min at room temperature. Next, the cells were washed twice with de-ionised water and covered with mounting medium (‘glycergel’, Dako, Glostrup, Denmark) and a cover slip. Fluorescence was visualised with a Leica TCS SP5 confocal microscope (Leica, Wetzlar, Germany).
# MCF-7/HYOR cells [3] = assay: Nucleotide incorporation assay, MCF-7/HYOR compared with MCF-7 cells; format: cell-based, human; details: 1 μCi radiolabeled compound; FIG. 4
# Procedure: MCF-7 and MCF-7/HYOR cells were seeded at 10,000 cells/cm. After 48 hours, cells were treated with 1 μCi of ^3H-labeled nucleoside with or without 10 μM TPi. 16 h later, the medium was removed and the cells were washed twice with PBS. Next, the cells were trypsinized, transferred to Eppendorf tubes and centrifuged for 10 minutes at 1,400 rpm. The pellet was resuspended in 1 ml absolute ice-cold methanol and kept on ice for 20 minutes. After centrifugation for 20 minutes at 13,000 rpm the pellet was washed twice with methanol, resuspended in methanol and transferred to scintillation vials containing 9 ml of Ready safe liquid scintillation reagent (‘Hisafe 3’, Perkin Elmer, Waltham, Mass.). The radioactivity was measured by a Liquid scintillation analyzer (2300 TR, Packard, Canberra, Australia).
# MCF-7/HYOR cell cultures = assay: Nucleoside metabolism experiments, distribution of drug-derived radiolabel in MCF-7/HYOR cell cultures; format: cell-based, human; details: MCF-7/HYOR
# Procedure: Next, the cells were trypsinized, transferred to Eppendorf tubes and centrifuged for 10 minutes at 1,400 rpm. The pellet was resuspended in 1 ml absolute ice-cold methanol and kept on ice for 20 minutes. After centrifugation for 20 minutes at 13,000 rpm the pellet was washed twice with methanol, resuspended in methanol and transferred to scintillation vials containing 9 ml of Ready safe liquid scintillation reagent (‘Hisafe 3’, Perkin Elmer, Waltham, Mass.). The radioactivity was measured by a Liquid scintillation analyzer (2300 TR, Packard, Canberra, Australia). […] Next, the cells were incubated in 0.5 ml absolute ice-cold methanol and kept on ice for 20 minutes. After centrifugation for 20 minutes at 13,000 rpm, the supernatant was subjected to HPLC analysis. […] The amount of compound incorporated into nucleic acids was measured as described above.
compound,measurement,setting,value
"C[C@H]1O[C@@H](n2cc(F)c(=O)[nH]c2=O)[C@H](O)[C@@H]1O [5′DFUR, 5-fluoro-5′-deoxyuridine]",Conversion in the medium of uninfected MCF-7 cells,[1],no conversion
same,IC50,"MCF-7 cells; MCF7, 96 h, no TPi, 4 days, read-out: IC50 MCF-7 As such",> 100 µM
same,IC50,"MCF-7 cells; MCF7, with 10 μM TPi, read-out: IC50 MCF-7 +TPi (10 μM)",> 100 µM
same,IC50,"MCF-7/HYOR cells [2]; MCF7, read-out: IC50 MCF-7/HYOR +TPi (10 μM)",> 100 µM
same,IC50,"MCF-7/HYOR cells [2]; MCF7, read-out: IC50 MCF-7/HYOR As such",3.5 ± 0.53 µM
same,IC50,"MCF-7/HYOR cells [2]; MCF7, plasmocin 25 μg/ml, 1 day pretreatment, read-out: IC50 MCF-7/HYOR +plasmocin (25 μg/ml) 1 day prior to addition of test compounds",> 100 µM
same,IC50,"MCF-7/HYOR cells [2]; MCF7, plasmocin 25 μg/ml, 3 days pretreatment, read-out: IC50 MCF-7/HYOR +plasmocin (25 μg/ml) 3 days prior to addition of test compounds",> 100 µM
same,Ratio (1)/(2) MCF-7/HYOR,MCF-7/HYOR cells [2]; IC50 in the absence of TPi to IC50 in the presence of TPi,<0.035
same,"Percent conversion of nucleoside to the free pyrimidine base, recombinant E. coli TP",E. coli TP; 2 hours,26%
same,"Percent conversion of nucleoside to the free pyrimidine base, recombinant E. coli TP",E. coli TP; 16 hours,64%
same,Percent conversion of nucleoside to the free pyrimidine base in MCF-7/HYOR medium,"M. hyorhinis TP; 2 hours, 200 μM substrate",5%
same,Percent conversion of nucleoside to the free pyrimidine base in MCF-7/HYOR medium,"M. hyorhinis TP; 16 hours, 200 μM substrate",22%
"Cl.N=C1CCCN1Cc1[nH]c(=O)[nH]c(=O)c1Cl [TPi, 5-chloro-6-(1 [2-iminopyrrolidinyl]methyl)uracil hydrochloride]",Effect on the growth of M. hyorhinis in MCF-7 cell cultures,M. hyorhinis,not inhibitory
same,"Inhibition of conversion of dThd, TFT, FdUrd and 5′DFUR to their free bases in MCF-7/HYOR culture medium","M. hyorhinis TP; 10 μM TPi, 200 μM substrate",completely inhibited
"Cc1cn([C@H]2C[C@H](O)[C@@H](CO)O2)c(=O)[nH]c1=O [dThd, thymidine]",Conversion in the medium of uninfected MCF-7 cells,[1],no conversion
same,Reduction of incorporation into nucleic acids in infected MCF-7/HYOR cells in comparison with uninfected MCF-7 cells,MCF-7/HYOR cells [3],85 fold
same,"% of drug-derived radiolabel, In medium, Base","MCF-7/HYOR cell cultures; 1 μCi, 16 h",74.6%
same,"% of drug-derived radiolabel, In medium, Nucleoside","MCF-7/HYOR cell cultures; 1 μCi, 16 h",11.5%
same,"% of drug-derived radiolabel, In the cytosol of the cells, 5′-diphosphate","MCF-7/HYOR cell cultures; 1 μCi, 16 h",0.3%
same,"% of drug-derived radiolabel, In the cytosol of the cells, 5′-monophosphate","MCF-7/HYOR cell cultures; 1 μCi, 16 h",0.6%
same,"% of drug-derived radiolabel, In the cytosol of the cells, 5′-triphosphate","MCF-7/HYOR cell cultures; 1 μCi, 16 h",0.2%
same,"% of drug-derived radiolabel, In the cytosol of the cells, Nucleoside/nucleobase","MCF-7/HYOR cell cultures; 1 μCi, 16 h",7.5%
same,"% of drug-derived radiolabel, Incorporatio into DNA/RNA","MCF-7/HYOR cell cultures; 1 μCi, 16 h",5.3%
same,Share incorporated into the nucleic acids in the presence of TPi,MCF-7/HYOR cell cultures; in the presence of TPi,almost all
same,"Percent conversion of nucleoside to the free pyrimidine base, recombinant E. coli TP",E. coli TP; 2 hours,82%
same,"Percent conversion of nucleoside to the free pyrimidine base, recombinant E. coli TP",E. coli TP; 16 hours,93%
same,Percent conversion of nucleoside to the free pyrimidine base in MCF-7/HYOR medium,"M. hyorhinis TP; 16 hours, 200 μM substrate",97%
same,Thymidine degraded into thymine,"M. hyorhinis TP; within 60 minutes, FIG. 3",almost all

# — US20110065663A1, “ANTI-CANCER COMBINATION THERAPY” (Katholieke Universiteit Leuven, K.U. Leuven R&D, priority 2008, published 2011)
